Data from patent EP4810052A2, “HCRHR2 SELECTIVE POLYPEPTIDES” (Gubra A/S, priority 2023, dated 2026).
pEC50: −log10 of the molar value. Like-named read-outs stand apart in the source and are kept apart here. Starred links: 1 amine or outer side, 2 acyl side, 3 side chain; linkers in the order of their positions; H or OH if unused. Non-standard residues stand in square brackets, D forms with d. Residues, ends and D or L forms follow the SMILES beside them. Groups on a side chain read outwards from the residue. *: point of attachment. C20 diacid = O=C(O)CCCCCCCCCCCCCCCCCCC(=O)*; γGlu = O=C(O)[C@H](CCC(=O)[*:2])N[*:1]; NMeI = CC[C@H](C)[C@H](NC)C(=O)O; Nle = CCCC[C@H](N)C(=O)O; AEEA = NCCOCCOCC(=O)O; Aib = CC(C)(N)C(=O)O

How the values were obtained:
[1] = target: T1, hCRHR1 (Homo sapiens, UniProt P34998); assay: HTRF cAMP assay, determination of hCRHR1 potency (peptide libraries 5 conc., purified peptides 11 conc.); type: cell-based; details: for pEC50: read-out: hCRHR1 EC50; for EC50: stable cell system, Table 10, read-out: Stable EC50 (nM) hCRHR 1
T1 sequence (P34998 24-415): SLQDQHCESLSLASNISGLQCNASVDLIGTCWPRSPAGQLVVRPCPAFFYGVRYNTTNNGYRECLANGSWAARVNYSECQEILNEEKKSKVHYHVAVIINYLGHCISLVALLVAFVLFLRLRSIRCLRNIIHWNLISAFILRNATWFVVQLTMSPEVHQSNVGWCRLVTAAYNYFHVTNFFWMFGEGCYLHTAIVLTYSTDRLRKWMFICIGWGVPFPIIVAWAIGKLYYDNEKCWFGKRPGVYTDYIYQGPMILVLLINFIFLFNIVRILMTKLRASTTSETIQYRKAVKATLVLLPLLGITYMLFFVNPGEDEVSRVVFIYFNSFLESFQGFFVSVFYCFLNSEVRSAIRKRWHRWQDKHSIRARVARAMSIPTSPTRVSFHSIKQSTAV
Method in brief: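 Cellular cAMP was read by time-resolved FRET between d2-labelled cAMP and cryptate anti-cAMP antibody. The cells were freshly thawed suspension CHO-K1 cells stably expressing human CRHR1.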

[2] = Chemical stability of purified peptides (RP-UHPLC main peak purity loss); type: physicochemical; details: for Purity loss (RP-UPLC analysis) T28-T0 (%): 28 days
Method in brief: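 Purity loss is the drop in RP-UHPLC main-peak area fraction (215 nm detection, C8 column at 50 °C) from time zero to day 14 and/or day 28 at 40 °C. Samples held roughly 1.0 mg/ml peptide in 50 mM phosphate, pH 7.5, with other pH targets also tested.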

[3] = target: T1, hCRHR1; assay: cAMP potency, transiently transfected CHO-K1 cells, hCRHR1; type: cell-based; set-up: DYK (FLAG); host or cells: CHO-K1, transiently transfected; details: transiently transfected CHO-K1, average n=3; read-out: Transient cell system EC50 (nM) hCR HR1
[4] = PK in mice; type: in vivo; set-up: T½ / MRT: unit: h; details: for MRT / T½ / clearance / half-life / Cmax / Tmax: Mouse; for bioavailability / clearance / half-life / Cmax / Tmax: male, in vivo; for bioavailability: NMRI, mouse; for clearance / half-life / Cmax / Tmax: NMRI/RjHan; for half-life: read-out: T½ (converted)
Method in brief: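 Male NMRI/RjHan lean mice, about 8 weeks old after acclimatization, got one peptide IV and another SC at 15 or 50 nmol/kg. Sparse plasma sampling (3 mice per timepoint) ran from 0.17 to 96 h post-dose. LC-MS/MS quantified plasma levels, with parameters from non-compartmental analysis.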

[5] = Dynamic Light Scattering (DLS) of peptide oligomerisation/particle formation; type: physicochemical; details: average of three replica
Method in brief: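 Peptides were dissolved at 2000 µM in 50 mM phosphate, adjusted to pH 7.5 and 0.2 µm-filtered. Samples were incubated at 40 °C with 700 rpm shaking and measured by DLS in triplicate at time zero and after five days. Hydrodynamic radius and polydispersity came from cumulant analysis assuming one species.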

[6] = T0, time zero after sample preparation
[7] = T5, five days incubation at 40°C with continuous shaking

Row | Structure (SMILES) | EC50 [1] [nM] | Purity loss (RP-UPLC analysis) T14-T0 (%) ([2]; pH 7.0, 40°C, 14 days) | Purity loss (RP-UPLC analysis) T28-T0 (%) ([2]; pH 7.0, 40°C) | Purity loss (RP-UPLC analysis) T14-T0 (%) ([2]; pH 7.5, 40°C, 14 days) | Purity loss (RP-UPLC analysis) T28-T0 (%) ([2]; pH 7.5, 40°C) | Purity loss (RP-UPLC analysis) T14-T0 (%) ([2]; pH 8.0, 40°C, 14 days) | Purity loss (RP-UPLC analysis) T28-T0 (%) ([2]; pH 8.0, 40°C) | EC50 [3] [nM] | MRT [4] | T½ [4] | bioavailability ([4]; sc) [%] | clearance ([4]; iv, 15 nmol/kg i.v.) [mL/h/kg] | half-life ([4]; iv, 15 nmol/kg i.v.) [h] | Cmax ([4]; sc, 15 nmol/kg s.c.) [nM] | Tmax ([4]; sc, 15 nmol/kg s.c.) [h] | half-life ([4]; sc, 15 nmol/kg s.c.) [h] | PD (%) [5, 6] [%] | Rh (nm) [5, 6] [nm] | PD (%) [5, 7] [%] | Rh (nm) [5, 7] [nm] | other results
1 | CCCC[C@H](NC(=O)[C@@H](NC(=O)[C@H](CCC(=O)O)NC(=O)[C@H](C)NC(=O)[C@H](CC(N)=O)NC(=O)C(C)(C)NC(=O)[C@H](CCCCNC(=O)COCCOCCNC(=O)COCCOCCNC(=O)CC[C@H](NC(=O)CC[C@H](NC(=O)CCCCCCCCCCCCCCCCCCC(=O)O)C(=O)O)C(=O)O)NC(=O)[C@H](C)NC(=O)[C@H](CCC(N)=O)NC(=O)[C@H](CCC(=O)O)NC(=O)[C@H](CCCNC(=N)N)NC(=O)[C@H](C)NC(=O)[C@H](C)NC(=O)[C@H](CCCNC(=N)N)NC(=O)[C@H](C)NC(=O)[C@H](CCCNC(=N)N)NC(=O)[C@H](C)NC(=O)[C@H](CCC(N)=O)NC(=O)[C@H](CO)NC(=O)[C@H](CC(C)C)NC(=O)[C@H](CC(C)C)NC(=O)[C@@H](NC(=O)[C@H](CCC(N)=O)NC(=O)[C@H](CC(C)C)NC(=O)[C@H](CC(C)C)NC(=O)CNC(=O)[C@@H](NC(=O)[C@@H]1CCCN1C(=O)[C@@H](NC(=O)[C@H](CC(=O)O)NC(=O)[C@H](CC(C)C)NC(=O)[C@H](CO)NC(=O)[C@H](CC(C)C)NC(=O)[C@@H](NC(=O)[C@@H]1CCCN1)C(C)C)C(C)C)[C@@H](C)CC)[C@@H](C)CC)[C@@H](C)CC)C(=O)N[C@@H](C)C(=O)N[C@@H](CCC(=O)O)C(=O)N[C@H](C(N)=O)C(C)C [SEQ ID NO: 238] (H-PVLSLDVPIGLLQILLSQARARAAREQAK([AEEA-AEEA-γGlu-γGlu-C20 diacid])[Aib]NAEI[Nle]AEV-NH2) | > 5000 | -1.0 | -1.2 | -3.1 | -4.8 | -5.1 | -9.8 | > 5000 | 21.4 | 19.6 | 60 | 4.4 | 19.6 | 48 | 24 | 25.2 | 5.3 | 4.8 | 8.1 | 4.8 | pEC50 ([1]; Table 5, purified peptides): < 5.30; Chemical stability at pH 7.5 after 14 days at 40°C (% degradation) ([2]; pH 7.5, 14 days, 40°C): -1.6%; Chemical stability at pH 7.5 after 28 days at 40°C (% degradation) ([2]; pH 7.5, 28 days, 40°C): -4.6%
2 | CC[C@H](C)[C@H](NC)C(=O)N[C@H](C(=O)N[C@@H](CC(C)C)C(=O)N[C@@H](CO)C(=O)N[C@@H](CC(C)C)C(=O)N[C@@H](CC(=O)O)C(=O)N[C@H](C(=O)N1CCC[C@H]1C(=O)N[C@H](C(=O)NCC(=O)N[C@@H](CC(C)C)C(=O)N[C@@H](CC(C)C)C(=O)N[C@@H](CCC(N)=O)C(=O)N[C@H](C(=O)N[C@@H](CC(C)C)C(=O)N[C@@H](CC(C)C)C(=O)N[C@@H](CCC(=O)O)C(=O)N[C@@H](CCC(N)=O)C(=O)N[C@@H](C)C(=O)N[C@@H](CCCNC(=N)N)C(=O)N[C@@H](C)C(=O)N[C@@H](CCCNC(=N)N)C(=O)N[C@@H](C)C(=O)N[C@@H](C)C(=O)N[C@@H](CCCNC(=N)N)C(=O)N[C@@H](CCC(=O)O)C(=O)N[C@@H](CCC(N)=O)C(=O)N[C@@H](C)C(=O)N[C@@H](CCCCNC(=O)COCCOCCNC(=O)COCCOCCNC(=O)CC[C@H](NC(=O)CC[C@H](NC(=O)CCCCCCCCCCCCCCCCCCC(=O)O)C(=O)O)C(=O)O)C(=O)N[C@H](C(=O)N[C@@H](CC(N)=O)C(=O)NC(C)(C)C(=O)N[C@@H](CCC(=O)O)C(=O)N[C@H](C(=O)N[C@@H](CC(C)C)C(=O)N[C@@H](C)C(=O)N[C@@H](CCC(=O)O)C(=O)N[C@H](C(N)=O)C(C)C)[C@@H](C)CC)[C@@H](C)O)[C@@H](C)CC)[C@@H](C)CC)C(C)C)C(C)C [SEQ ID NO: 16] (H-[NMeI]VLSLDVPIGLLQILLEQARARAAREQAK([AEEA-AEEA-γGlu-γGlu-C20 diacid])TN[Aib]EILAEV-NH2) | > 5000 | -0.6 | -1.1 | -0.1 | -0.3 | -0.5 | -1.1 | > 1000 | 21.5 | 15.9 | 62 | 3.7 | 15.9 | 60 | 6 | 14.8 | 10.5 | 4.7 | 11.6 | 4.7 | pEC50 ([1]; purified peptides, CHO-K1 cells stably expressing hCRHR1, cAMP HTRF): < 5.30; Chemical stability at pH 7.5 after 14 days at 40°C (% degradation) ([2]; pH 7.5, 40°C, 14 days, first value of cell): -0.6 / %
